Test system: Pseudomonas aeruginosa ATCC 9027
Test: Challenge Test for the Evaluation of Preservative Capacity of Liquid Detergent and Personal Products
Assay type: cell-based
Conditions: aqueous formula, each active 5%, pH 7.6, inoculum 1.06E+07 (Log 7)
Method: Experiments were conducted to evaluate antimicrobial activity against Pseudomonas aeruginosa of aqueous formulas containing 2,3-dihydroxypropyl trimethyl ammonium chloride (Glyceryl Quat), sodium cocoyl glycinate and combinations of these two materials. Samples were prepared at room temperature by mixing together sodium cocoyl glycinate and/or Glyceryl Quat and water. The pH was adjusted by addition of aqueous hydrochloric acid to reach a 7.6 value. Amounts of each of the active components was 5%. Test Method: Challenge Test for the Evaluation of Preservative Capacity of Liquid Detergent and Personal Products Test Microorganism: Pseudomonas aeruginosa ATCC 9027 obtained from American Type Culture Collection, Manassas, Va. 20108. Procedure: 20 grams of product were inoculated with 0.2 ml of the microorganism at a level of 1.06E+07 or Log 7. A single inoculation was performed. At 2 day, 7 day, 14 day and 21 day time points after inoculation a 1 gram sample was aseptically removed into a neutralizing fluid (TAT Broth) and plated using Letheen Agar. The plates were incubated at 30° C. for 7 days. At the end of the incubation time the plates were removed and examined for microbial growth. Calculation of Log Reduction: The microorganisms recovered were converted into Log10 and compared to initial inoculum count which then determined the Log Reduction. Logarithmic functions are the inverse of exponential functions. Log reduction was determined by the initial inoculum count minus the counts at each sampling time point.

C[N+](C)(C)CC(O)CO.[Cl-] (centres unmarked) [Glyceryl Quat, 2,3-dihydroxypropyl trimethyl ammonium chloride]
Log Reduction Value (2 day after inoculation): 2.1
Log Reduction Value (7 day after inoculation): 1.5
Log Reduction Value (14 day after inoculation): 2.8
Log Reduction Value (21 day after inoculation): 3.4

sodium cocoyl glycinate
Log Reduction Value (2 day after inoculation): 1.1
Log Reduction Value (7 day after inoculation): 1.1
Log Reduction Value (14 day after inoculation): 0.8
Log Reduction Value (21 day after inoculation): 0.2

Source: US20120010115A1, “PRESERVATIVE SYSTEM AND COMPOSITION BASED ON GLYCINATE AND DIHYDROXYPROPYL QUATERNARY AMMONIUM SALT COMBINATION” (CONOPCO, INC., D/B/A UNILEVER, priority 2010, published 2012)
